Laboratory results reported in US20240238269A1.
Values after ≈ are worked out from the molar mass of the structure shown. Read-outs that look alike come from different tables or passages of the source.

Tests used:
[1] = system: HPV11; experiment: microbe, parasite or virus in culture; conditions: human papillomavirus 11, C-33-A
[2] = system: HPV16; experiment: microbe, parasite or virus in culture; conditions: Human papillomavirus 16, C-33-A
[3] = system: HPV18; experiment: microbe, parasite or virus in culture; conditions: human papillomavirus 18, C-33-A
[4] = system: HPV6; experiment: HPV6 transient transfection reporter plasmid replication assay; conditions: for EC50 / EC90: Alphapapillomavirus 10, C-33-A
[5] = system: Novel coronavirus (SARS-COV-2); experiment: Antiviral activity against Novel Coronavirus; format: cell-based
[6] = system: Chikungunya virus (CHIKV); experiment: Antiviral activity against Chikungunya Virus; format: cell-based
[7] = system: Dengue Virus 2; experiment: Antiviral activity against Dengue Virus 2; format: cell-based
[8] = system: Influenza A H1N1; experiment: Antiviral activity against Influenza A H1N1; format: cell-based
[9] = system: Middle East Respiratory Syndrome Coronavirus (MERS-COV); experiment: microbe, parasite or virus in culture; format: cell-based; conditions: Vero 76
[10] = system: Rift Valley Fever Virus (RVFV); experiment: microbe, parasite or virus in culture; format: cell-based
[11] = system: Tacaribe Virus (TCRV); experiment: microbe, parasite or virus in culture; format: cell-based
[12] = system: Human Coronavirus (α) 229E; experiment: Antiviral activity against Human Coronavirus (α); format: cell-based
[13] = system: Human Coronavirus (β) OC43; experiment: Antiviral activity against Human Coronavirus (β); format: cell-based
[14] = system: Herpes Simplex Virus 1; experiment: Antiviral activity against Herpes Simplex Virus 1; format: cell-based
[15] = system: Herpes Simplex Virus 2; experiment: Antiviral activity against Herpes Simplex Virus 2; format: cell-based
[16] = system: Varicella-zoster Virus; experiment: Antiviral activity against Varicella-zoster Virus; format: cell-based
[17] = system: human papillomavirus (HPV); experiment: Antiviral activity against human papillomavirus (HPV), overall conclusion; format: cell-based
Description: When the SI50 value>10, the compound was determined to be active against the virus.

[18] = system: other viruses; experiment: Antiviral activity against other (non-HPV) viruses, overall conclusion; format: cell-based
[19] = system: HPV11; conditions: Human Papillomavirus 11 HE611260.1, C-33 A
[20] = system: HPV16; conditions: Human Papillomavirus 16 KP212151.1, C-33 A
[21] = system: HPV18; conditions: Human Papillomavirus 18 KC470230.1, C-33 A
[22] = system: Huh7; conditions: human
[23] = in vitro; conditions: human
[24] = in vitro; conditions: human; remark: listed apart in the source
[25] = in vitro; conditions: dog
[26] = in vitro; conditions: African green monkey
[27] = in vitro; conditions: human; remark: listed apart in the source
[28] = HPV16 strain KP212151.1, C-33 A, concentration range 0.001-250 μM
[29] = Human Papillomavirus 16 KP212151.1, C-33 A, 0.001-250 μM
[30] = Human Papillomavirus 16 KP212151.1, C-33 A, 0.048-150 μM
[31] = Human Papillomavirus 6 FR751330.1, C-33 A

## Nc1nc2c(ncn2CCOCP(=O)(O)O)c(=O)[nH]1 [9-[2-(phosphonomethoxy)ethyl]guanine]
[1]
  EC50: 1.03 µM
  EC90: 4.47 µM
[2]; [28]
  EC50: 0.28 µM
  EC90: 2.3 µM
[3]
  EC50: 0.63 µM
  EC90: > 150 µM
[4]
  EC50: 0.56 µM
  EC90: 6.35 µM

## O=[N+]([O-])c1ccc(O)c2ncccc12
[5]
  SI50 (CC50/EC50): 3.1
[5]; Severe acute respiratory syndrome coronavirus 2, Vero 76
  EC50: 0.32 µg/mL (≈ 1.68 µM)
[6]
  SI50 (CC50/EC50): 0
[6]; Chikungunya virus, Vero 76
  EC50: > 0.86 µg/mL
[7]
  SI50 (CC50/EC50): 1.3
[7]; Dengue virus, Huh-7
  EC50: 0.32 µg/mL (≈ 1.68 µM)
[8]
  SI50 (CC50/EC50): 3.8
[8]; Influenza A virus, H1N1, MDCK
  EC50: 0.32 µg/mL (≈ 1.68 µM)
[9]; MERS Coronavirus EMC
  SI50 (CC50/EC50): 0
[9]; Middle East respiratory syndrome-related coronavirus
  EC50: > 0.32 µg/mL
[10]; Rift Valley Fever Virus MP-12, Vero 76
  SI50 (CC50/EC50): 1
[10]; Rift Valley fever virus, Vero 76
  EC50: > 0.16 µg/mL
[11]; Mammarenavirus tacaribeense, Vero
  EC50: < 0.1 µg/mL
[11]; Tacaribe Virus TRVL 11573, Vero
  SI50 (CC50/EC50): 1
[12]
  SI50 (CC50/EC50): 1.3
[12]; unidentified human coronavirus, Huh-7
  EC50: 0.32 µg/mL (≈ 1.68 µM)
[13]
  SI50 (CC50/EC50): 0
[13]; unidentified human coronavirus, OC43
  EC50: > 0.37 µg/mL
[14]
  SI50 (CC50/EC50): <3.0
[14]; Human alphaherpesvirus 1
  EC50: > 1.2 µM
[15]
  SI50 (CC50/EC50): <4
[15]; Human alphaherpesvirus 2
  EC50: > 1.2 µM
[16]
  SI50 (CC50/EC50): <3
[16]; Human alphaherpesvirus 3
  EC50: > 0.24 µM
[17]; HPV, Tables 1 and 2
  antiviral activity compared with the positive control drug: better than that of the positive control drug
[17]; active when SI50 value>10
  inhibitory activity against HPV: specific inhibitory activity against HPV
[18]
  inhibitory activity against other viruses: not observed against other viruses
[19]
  SI50 (CC50/EC50): 53
  SI90: 19
[20]; 0.001-250 μM
  SI50 (CC50/EC50): 297
  SI90: 143
[20]; 0.048-150 μM
  SI50 (CC50/EC50): 23
  SI90: 13
[21]
  SI50 (CC50/EC50): 64
  SI90: 16
[22]
  CC50: 0.4 µg/mL (≈ 2.1 µM)
[23]
  CC50 at 48 h: 55.5 µM
[24]
  CC50: 0.42 µg/mL (≈ 2.21 µM)
[25]
  CC50: 1.2 µg/mL (≈ 6.31 µM)
[26]
  CC50: < 0.1 µg/mL
[27]
  CC50: 0.37 µg/mL (≈ 1.95 µM)
[1]
  EC50: 1.04 µM
  EC90: 2.99 µM
[2]; [29]
  EC50: 0.26 µM
  EC90: 0.54 µM
[2]; [30]
  EC50: 2.82 µM
  EC90: 5.11 µM
[3]
  EC50: 1.01 µM
  EC90: 3.99 µM
[4]
  EC50: 0.86 µM
  EC90: 5.41 µM
[4]; [31]
  SI50 (CC50/EC50): 55
  SI90: 9
